Reference: paper PMC5855688, “BC-Box Motif-Mediated Neuronal Differentiation of Somatic Stem Cells” (International Journal of Molecular Sciences, 2018)

Columns and labels:
[1] = test system: skin-derived precursors (SKPs); assay: Neurite outgrowth / morphological evaluation of neuronal differentiation; format: cell-based, rat (neonate Wistar); conditions: for Morphological change: phase-contrast microscopy, Figure 1E
Experimental: (§1) Rodent skin-derived precursor cells (SKPs), which can differentiate to neurons, were used. SKPs were previously isolated from the back dermis of neonate Wistar rats by the authors. These cells were cultured in growth medium composed of DMEM/F12 (1:1; Gibco, Grand Island, NY, USA) containing 2% B27 supplement (Gibco), 20 ng/mL epidermal growth factor (EGF; Upstate Biotechnology, Lake Placid, NY, USA), and 40 ng/mL bFGF (PeproTech EC Ltd., Rocky Hill, NJ, USA) in a humidified incubator at 37 °C with 5% CO2. The floating clusters of cultured cells were centrifuged and dissociated into a single-cell suspension by use of a Pasteur pipette with a flame-polished tip. These single cells were then re-suspended into at a concentration of 50,000 cells/mL for passage or experiments.
(§2) For neuronal differentiation, cells were dissociated into a single-cell suspension by use of a Pasteur pipette and re-suspended into a concentration of 50,000 cells/mL in DMEM/F12 without serum, neurotrophic factors or growth factors. Then, the cells were cultured on poly-L-lysine-coated dishes or cover glasses, and the synthesized peptides at concentrations from 1 to 5 μM were added to the culture medium and delivered into the cells. Three days or more later, the cells were used for morphological, immunocytochemical, immunohistochemical, electrophysiological and immunoprecipitation studies, as well as for Western blot analysis.
Neurite outgrowth with length exceeding the diameter of the neuronal soma is often assessed as a morphological index of neuronal differentiation. After a single-cell suspension was made by pipetting, the cells were cultured in DMEN/F12 medium alone at 37 °C in a 5% CO2 incubator. Thereafter, neurite outgrowth was evaluated with the following 4 levels: +++, for above 50% of the cells showing neurite outgrowth; ++, for 20–50% with neurite outgrowth; +, for 5–19% having neurite outgrowth; and −, for below 5% of the cells with neurite outgrowth.

[2] = test system: skin-derived precursors (SKPs); assay: Western blot analysis of neuronal markers in NDD peptide-treated cells; format: cell-based, rat (neonate Wistar); conditions: Figure 6A; for Expression of ChAT: choline acetyltransferase; for Expression of TH: tyrosine hydroxylase; for Expression of GAD: glutamic acid decarboxylase
Experimental: as §1, §2
(§3) Cultured cells were washed 3 times in cold PBS and then scraped into ice-cold PBS. After incubation on ice for 10 min, the cells were lysed with lysis buffer and centrifuged, after which the supernatants were collected. Each sample was separated by SDS-PAGE under reducing conditions and transferred electrophoretically to nitrocellulose filters. Non-specific binding of antibody was blocked by incubation with 5% donkey serum for 1 h. Western blots were probed with anti-MAP2 antibody, anti-NFH antibody, anti-ChAT antibody, anti-GAD antibody, anti-rhodopsin antibody, anti-TH antibody, and anti-elongin C antibody (Santa Cruz, San Diego, CA, USA) followed by horseradish peroxidase-conjugated secondary antibodies. Protein bands were detected by using a chemical luminescence detection system (ECL Plus Western Blotting Reagent Pack, Amersham, Hemel Hempstead, UK). Images were analyzed with LAS-1000 (Fujifilm, Tokyo, Japan), and the density of the bands was determined by using Image Gauge software (Fujifilm).

[3] = test system: skin-derived precursors (SKPs); assay: Immunocytochemistry of neuronal markers in NDD peptide-treated cells; format: cell-based, rat (neonate Wistar); conditions: Figure 6B
Experimental: as §1, §2
(§4) Cultured cells were fixed with 4% paraformaldehyde in PBS (Phosphate buffered saline) for 10 min at room temperature. Cells were incubated for 1 h at room temperature with primary antibodies. Antibodies against anti-MAP2 antibody (Sigma-Aldrich, St. Louis, MO, USA), anti-Neurofilment-H (NFH) antibody (Sigma-Aldrich), anti-NeuN antibody (Merk Millipore, Billerica, MA, USA), anti-GFAP antibody (DAKO, Santa Clara, CA, USA), anti-tyrosine hydroxylase (TH) antibody (Merk Millipore, Billerica, MA, USA), anti-choline acetyl transferase (ChAT) antibody (Abbiotec, San Diego, CA, USA), anti-glutamic acid decaboxylase (GAD) antibody (Enzo Life Sciences, Flamingdale, NY, USA), and anti-rhodopsin antibody (Santa Cruz, San Diego, CA, USA) were used. After incubation with primary antibody, the cells were incubated for 1 h with secondary antibody, either rhodamine-conjugated anti-mouse IgG (Sigma-Aldrich) or FITC-conjugated anti-rabbit IgG (Sigma-Aldrich). Nuclear counterstaining was done with DAPI (Molecular Probes, Eugene, OR, USA) or TO-PRO-3 (Molecular Probes), and observations were made with a fluorescence microscope system (FV300, Olympus, Tokyo, Japan). We counted the number of immuno-positive cells with a given antibody in 4 to 6 random non-overlapping visual fields (50–200 cells per field) in each experiment. At least 2 experiments were performed per condition. The degree of positivity was expressed as the rate of immuno-positive cells to the total number of nuclei stained with DAP1 or TO-PRO-3.

elongin C = assay: Immunoprecipitation with anti-elongin C, immunoblot anti-FITC; format: binding, rat; conditions: FITC-conjugated peptides, Figure 3C, difference p < 0.001
Experimental: as §2
Cultured cells (1 × 10^6) were washed with ice-cold PBS and lysed in RIPA lysis buffer (Upstate, Charlottesville, VA, USA). The total protein was extracted from the cells, and the total protein concentration of each lysate was adjusted to 1 mg/mL. The lysates were immunoprecipitated with anti- elongin C antibody (Santa Cruz, San Diego, CA, USA) diluted at 1:500 by using μMACS Protein A Microbeads (Miltenyi Biotec, Bergisch Gladbach, Germany). The immunoprecipitates were analyzed by SDS/gradient polyacrylamide gel and Western blotting with anti-FITC antibody (Santa Cruz, San Diego, CA, USA) diluted 1:500. Immunolabeled bands were detected by using enhanced chemiluminescence reagents (Amersham Biosciences Corp., Piscataway, NJ, USA). Images were analyzed with LAS-1000 (Fujifilm), and the density of the bands was determined by using Image Gauge software (Fujifilm).

[4] = test system: skin-derived precursors (SKPs); assay: Immunocytochemistry with anti-Neurofilament-H (NFH) antibody; format: cell-based, rat (neonate Wistar); conditions: ten divided pVHL sequences compared, Figure 1C; peptides at 1 to 5 μM
Experimental: as §1, §2
as §4, with “After incubation with primary antibody, the cells were incubated for 1 h with secondary antibody, either rhodamine-conjugated anti-mouse IgG (Sigma-Aldrich) or FITC-conjugated anti-rabbit IgG (Sigma-Aldrich).” left out, “At least 2 experiments were performed per condition.” left out

[5] = test system: skin-derived precursors (SKPs); assay: Western blot analysis of NFH protein; format: cell-based, rat (neonate Wistar); conditions: ten divided pVHL sequences compared, Figure 1B, peptides at 1 to 5 μM
Experimental: as §1, §2, §3

[6] = BC-box motif alone (10-residue) peptides, delivered with TAT PTD, 1 to 5 μM
[7] = BC-box motif plus five C-terminal amino acids peptides, delivered with TAT PTD, 1 to 5 μM

Sequence: YARAAARQARA PLQELCRQRI [SOCS1 BC-box motif alone]
- Neurite Outgrowth Activity [1, 6]: - (below 5% of the cells with neurite outgrowth)

Sequence: YARAAARQARA SLKHLCRKAL [WSB2 BC-box motif alone]
- Neurite Outgrowth Activity [1, 6]: - (below 5% of the cells with neurite outgrowth)

Sequence: YARAAARQARA SLQYICRAVI [SOCS5 BC-box motif alone]
- Neurite Outgrowth Activity [1, 6]: + (5–19% having neurite outgrowth)

Sequence: YARAAARQARA TLKERCLQVV [VHL(157–166), pVHL BC-box motif alone, conjugated with PTD]
- Neurite Outgrowth Activity [1, 6]: - (below 5% of the cells with neurite outgrowth)
- Neurite Outgrowth Activity ([1]; Figure 2A, rates of cells having neurites, peptides at 1 to 5 μM, VHL157–168 vs VHL(157–171) p < 0.005): scarcely did

Sequence: YARAAARQARAMPRRAENWDEAEV [VHL(1–13), pVHL fragment conjugated with PTD]
- Morphological change ([1]; peptides at 1 to 5 μM): no morphological change

Sequence: YARAAARQARAPLQELCRQRIVAAVG [SOCS1 BC-box motif plus five amino acids]
- Neurite Outgrowth Activity [1, 7]: ++ (20–50% with neurite outgrowth)
- Expression of ChAT [2]: moderate
- Expression of TH [2]: moderate

Sequence: YARAAARQARASLKHLCRKALRSFLT [WSB2 BC-box motif plus five amino acids]
- Neurite Outgrowth Activity [1, 7]: ++ (20–50% with neurite outgrowth)
- Expression of ChAT [2]: moderate
- Expression of GAD [2]: expressed highly
- Expression of TH [2]: moderate
- Rate of GAD-positive (GABAnergic neuron-like) cells [3]: high rates of positive cells
- Rate of TH-positive (dopaminergic neuron-like) cells [3]: high rates of positive cells

Sequence: YARAAARQARASLQHICRTVI [SOCS4 BC-box motif alone]
- Neurite Outgrowth Activity [1, 6]: - (below 5% of the cells with neurite outgrowth)

Sequence: YARAAARQARASLQHICRTVICNCTT [SOCS4 BC-box motif plus five amino acids]
- Neurite Outgrowth Activity [1, 7]: ++ (20–50% with neurite outgrowth)
- Expression of rhodopsin [2]: moderate
- Expression of GAD [2]: expressed highly

Sequence: YARAAARQARASLQHLCRFRI [SOCS7 BC-box motif alone]
- Neurite Outgrowth Activity [1, 6]: + (5–19% having neurite outgrowth)

Sequence: YARAAARQARASLQHLCRFRIRQLVR [SOCS7 BC-box motif plus five amino acids]
- Neurite Outgrowth Activity [1, 7]: +++ (above 50% of the cells showing neurite outgrowth)
- Expression of ChAT [2]: high
- Expression of TH [2]: pronounced
- Rate of ChAT-positive (cholinergic neuron-like) cells [3]: high rates of positive cells

Sequence: YARAAARQARASLQYICRAVICRCTT [SOCS5 BC-box motif plus five amino acids]
- Neurite Outgrowth Activity [1, 7]: +++ (above 50% of the cells showing neurite outgrowth)
- Expression of rhodopsin [2]: highly expressed
- Rate of TH-positive (dopaminergic neuron-like) cells [3]: high rates of positive cells
- Rate of rhodopsin-positive cells [3]: high rates of positive cells

Sequence: YARAAARQARASLQYLCRFVI [SOCS6 BC-box motif alone]
- Neurite Outgrowth Activity [1, 6]: - (below 5% of the cells with neurite outgrowth)

Sequence: YARAAARQARASLQYLCRFVIRQYTR [SOCS6 BC-box motif plus five amino acids]
- Neurite Outgrowth Activity [1, 7]: ++ (20–50% with neurite outgrowth)
- Expression of TH [2]: moderate
- Rate of TH-positive (dopaminergic neuron-like) cells [3]: high rates of positive cells

Sequence: YARAAARQARASLTHLCRLEIRSSIK [ASB3 BC-box motif plus five amino acids]
- Rate of GAD-positive (GABAnergic neuron-like) cells [3]: high rates of positive cells
- Rate of TH-positive (dopaminergic neuron-like) cells [3]: high rates of positive cells

Sequence: YARAAARQARATLKERCLQVVRS [FITC-VHL(157–168), FITC-tagged VHL(157–168) peptide]
- Binding to elongin C (FITC band after anti-elongin C immunoprecipitation) (elongin C): a faint band for FITC
- Binding to elongin C (FITC band after anti-elongin C immunoprecipitation) (elongin C; listed as FITC-conjugated VHL(157–168)): significantly less did

Sequence: YARAAARQARATLKERCLQVVRSLVK [FITC-VHL(157–171), FITC-tagged VHL(157–171) peptide]
- Binding to elongin C (FITC band after anti-elongin C immunoprecipitation) (elongin C): A distinct band for FITC
- Binding to elongin C (FITC band after anti-elongin C immunoprecipitation) (elongin C; listed as FITC-conjugated VHL(157–171)): distinctly bound to elongin C

Sequence: YARAAARQARATLLESSARTI [LRR-1 BC-box motif alone]
- Neurite Outgrowth Activity [1, 6]: - (below 5% of the cells with neurite outgrowth)

Sequence: YARAAARQARATLLESSARTILHNRI [LRR-1 BC-box motif plus five amino acids]
- Neurite Outgrowth Activity [1, 7]: ++ (20–50% with neurite outgrowth)
- Expression of GAD [2]: expressed highly
- Rate of GAD-positive (GABAnergic neuron-like) cells [3]: high rates of positive cells
- Rate of TH-positive (dopaminergic neuron-like) cells [3]: high rates of positive cells

Sequence: YARAAARQARATLQHFCRLAI [SOCS2 BC-box motif alone]
- Neurite Outgrowth Activity [1, 6]: - (below 5% of the cells with neurite outgrowth)

Sequence: YARAAARQARATLQHFCRLAINKCT G [SOCS2 BC-box motif plus five amino acids]
- Neurite Outgrowth Activity [1, 7]: + (5–19% having neurite outgrowth)
- Expression of rhodopsin [2]: moderate
- Expression of GAD [2]: expressed highly

Sequence: YARAAARQARATLQHLCRKTV [SOCS3 BC-box motif alone]
- Neurite Outgrowth Activity [1, 6]: - (below 5% of the cells with neurite outgrowth)

Sequence: YARAAARQARATLQHLCRKTVNGHLD [SOCS3 BC-box motif plus five amino acids]
- Neurite Outgrowth Activity [1, 7]: ++ (20–50% with neurite outgrowth)
- Expression of TH [2]: moderate
- Rate of GAD-positive (GABAnergic neuron-like) cells [3]: high rates of positive cells

Sequence: YARAAARQARAVYTLKERCLQVVRSLVK [VHL(155–171), pVHL fragment conjugated with PTD]
- Morphological change ([1]; peptides at 1 to 5 μM): assumed a neuron-like morphology
- Rate of cells having neurites ([1]; ten divided pVHL sequences compared, Figure 1D, peptides at 1 to 5 μM, three days or more): greatest rate
- Rate of immunoreactivity for Neurofilament-H (NFH) [4]: greatest rate of immunoreactivity
- NFH protein expression [5]: greatest expression
